Where a SMILES comes first, the peptide text is derived from it. Bridges are numbered along the chain shown (N, C = ends). [ ]: non-standard residue; d: D form. The star is where a group is joined. Threoninol(2S,3R) = C[C@@H](O)[C@H](CO)N*
Columns and labels:
Cannabinoid receptor 1 = Cannabinoid receptor 1 (Homo sapiens, UniProt P21554); format: cell membranes, Chem-1, Membrane; conditions: chem-1; also: in other assays of this panel Not Active means under 50% inhibition at 10 µM
[1] = biological target: T1, Alpha-2A adrenergic receptor (Homo sapiens, UniProt P08913); format: cell membranes, Sf9, Membrane; also: in other assays of this panel Not Active means under 50% inhibition at 10 µM
T1 sequence (P08913 whole entry): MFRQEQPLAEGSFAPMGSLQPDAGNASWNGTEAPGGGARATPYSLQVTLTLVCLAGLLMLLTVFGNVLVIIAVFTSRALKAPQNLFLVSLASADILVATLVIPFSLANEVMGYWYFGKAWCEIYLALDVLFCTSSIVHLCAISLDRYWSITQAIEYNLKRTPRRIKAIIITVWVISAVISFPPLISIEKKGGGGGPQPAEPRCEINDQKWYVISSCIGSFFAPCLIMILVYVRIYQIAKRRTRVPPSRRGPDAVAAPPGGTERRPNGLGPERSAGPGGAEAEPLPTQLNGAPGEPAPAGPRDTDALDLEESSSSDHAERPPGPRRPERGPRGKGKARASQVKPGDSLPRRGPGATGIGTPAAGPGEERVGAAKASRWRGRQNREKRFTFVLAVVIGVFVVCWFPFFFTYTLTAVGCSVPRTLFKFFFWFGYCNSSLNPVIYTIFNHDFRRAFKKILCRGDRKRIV

Melanocortin receptor 5 = Melanocortin receptor 5 (Homo sapiens, UniProt P33032); format: cell membranes, Membrane; conditions: hek293; also: in other assays of this panel Not Active means under 50% inhibition at 10 µM
Sequence of Melanocortin receptor 5 (P33032 whole entry): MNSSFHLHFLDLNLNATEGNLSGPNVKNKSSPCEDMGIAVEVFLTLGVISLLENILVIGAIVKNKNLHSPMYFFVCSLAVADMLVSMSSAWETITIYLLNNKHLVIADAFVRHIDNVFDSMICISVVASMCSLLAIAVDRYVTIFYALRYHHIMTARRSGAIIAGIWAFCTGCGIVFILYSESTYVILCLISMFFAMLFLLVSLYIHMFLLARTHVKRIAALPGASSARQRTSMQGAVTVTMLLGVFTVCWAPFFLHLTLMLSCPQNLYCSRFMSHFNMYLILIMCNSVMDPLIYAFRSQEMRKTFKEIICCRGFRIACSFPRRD

[2] = biological target: T2, Alpha-1B adrenergic receptor (Rattus norvegicus, UniProt P15823); assay: DRUGMATRIX: Alpha-1B adrenergic receptor radioligand binding (ligand: prazosin); format: cell membranes, Wistar, Liver, Membrane; conditions: Not Active = under 50% inhibition at 10 µM
T2 sequence (P15823 whole entry): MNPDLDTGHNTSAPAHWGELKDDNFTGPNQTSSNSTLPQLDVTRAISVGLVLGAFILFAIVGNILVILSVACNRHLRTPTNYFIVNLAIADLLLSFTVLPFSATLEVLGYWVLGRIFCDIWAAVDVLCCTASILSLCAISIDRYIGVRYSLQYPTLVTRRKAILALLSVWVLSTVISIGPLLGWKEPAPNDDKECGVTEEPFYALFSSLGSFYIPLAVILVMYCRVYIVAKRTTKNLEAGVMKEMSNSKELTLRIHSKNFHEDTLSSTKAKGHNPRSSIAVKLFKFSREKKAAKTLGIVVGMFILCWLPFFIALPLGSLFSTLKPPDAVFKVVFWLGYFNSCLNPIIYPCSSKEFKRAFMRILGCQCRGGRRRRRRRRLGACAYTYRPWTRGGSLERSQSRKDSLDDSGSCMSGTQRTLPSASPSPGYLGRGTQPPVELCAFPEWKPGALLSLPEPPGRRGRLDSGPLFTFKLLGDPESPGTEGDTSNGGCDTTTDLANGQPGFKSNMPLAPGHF

[3] = biological target: Beta-1 adrenergic receptor (Homo sapiens, UniProt P08588); assay: DRUGMATRIX: Adrenergic beta1 radioligand binding (ligand: [125I] Cyanopindolol); format: cell membranes, CHO-K1, Membrane; conditions: cho-k1; Not Active = under 50% inhibition at 10 µM
Sequence of Beta-1 adrenergic receptor (P08588 whole entry): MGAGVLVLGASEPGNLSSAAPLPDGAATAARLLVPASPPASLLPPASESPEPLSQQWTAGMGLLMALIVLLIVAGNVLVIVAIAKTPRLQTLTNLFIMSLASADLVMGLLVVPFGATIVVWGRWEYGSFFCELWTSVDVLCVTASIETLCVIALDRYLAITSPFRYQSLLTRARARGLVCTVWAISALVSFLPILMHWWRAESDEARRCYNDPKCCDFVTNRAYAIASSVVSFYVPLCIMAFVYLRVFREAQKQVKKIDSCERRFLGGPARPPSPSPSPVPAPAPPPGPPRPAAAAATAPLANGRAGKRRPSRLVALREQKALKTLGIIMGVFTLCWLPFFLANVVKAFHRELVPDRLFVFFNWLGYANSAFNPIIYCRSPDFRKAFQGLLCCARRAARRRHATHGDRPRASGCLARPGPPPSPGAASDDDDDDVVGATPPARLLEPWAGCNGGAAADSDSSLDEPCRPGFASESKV

[4] = biological target: 5-hydroxytryptamine receptor 2B (Homo sapiens, UniProt P41595); format: cell membranes, CHO-K1, Membrane; also: in other assays of this panel Not Active means under 50% inhibition at 10 µM
Sequence of 5-hydroxytryptamine receptor 2B (P41595 whole entry): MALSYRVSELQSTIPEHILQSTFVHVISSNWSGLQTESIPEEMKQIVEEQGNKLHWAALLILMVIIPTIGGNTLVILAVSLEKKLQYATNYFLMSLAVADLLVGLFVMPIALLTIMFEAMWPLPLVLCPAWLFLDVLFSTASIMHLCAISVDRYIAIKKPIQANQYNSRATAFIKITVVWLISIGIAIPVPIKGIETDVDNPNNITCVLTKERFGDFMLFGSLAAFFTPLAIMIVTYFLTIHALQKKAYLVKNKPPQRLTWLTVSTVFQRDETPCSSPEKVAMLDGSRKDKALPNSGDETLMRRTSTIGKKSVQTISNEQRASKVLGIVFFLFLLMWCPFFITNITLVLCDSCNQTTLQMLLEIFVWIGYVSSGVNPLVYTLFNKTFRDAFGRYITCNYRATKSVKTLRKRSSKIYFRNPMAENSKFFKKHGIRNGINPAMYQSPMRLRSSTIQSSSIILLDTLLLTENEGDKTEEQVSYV

Sequence of Cannabinoid receptor 1 (P21554 whole entry): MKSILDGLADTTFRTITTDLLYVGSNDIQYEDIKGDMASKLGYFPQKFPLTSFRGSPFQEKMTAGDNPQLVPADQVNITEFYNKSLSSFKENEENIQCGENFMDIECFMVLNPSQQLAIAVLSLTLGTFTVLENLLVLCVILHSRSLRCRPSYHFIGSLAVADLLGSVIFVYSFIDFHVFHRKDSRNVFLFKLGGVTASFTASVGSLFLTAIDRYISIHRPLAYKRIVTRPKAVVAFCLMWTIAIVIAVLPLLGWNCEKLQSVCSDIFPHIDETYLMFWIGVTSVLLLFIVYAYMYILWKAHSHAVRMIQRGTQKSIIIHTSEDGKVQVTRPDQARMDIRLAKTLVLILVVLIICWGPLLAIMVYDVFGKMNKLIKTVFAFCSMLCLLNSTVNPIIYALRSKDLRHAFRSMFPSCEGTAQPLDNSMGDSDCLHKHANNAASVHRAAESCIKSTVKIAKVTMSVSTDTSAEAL

SMILES	IC50 (Cannabinoid receptor 1)	IC50 ([1]; sf9)	IC50 (Melanocortin receptor 5)	IC50 [2]	IC50 [3]	IC50 ([4]; cho-k1)	IC50 ([4]; read-out: IC50) [µM]	Ki ([4]; read-out: Ki) [µM]	IC50 ([1]; read-out: IC50) [µM]	Ki ([1]; read-out: Ki) [µM]	Ki (Cannabinoid receptor 1)	Ki ([1]; sf9)	Ki (Melanocortin receptor 5)	Ki [2]	Ki [3]	Ki ([4]; cho-k1)
COc1ccccc1C(=O)N1CCC(Cc2ccccc2)CC1	Not Active	Not Active	Not Active	Not Active	Not Active	Not Active	–	–	–	–	–	–	–	–	–	–
Cc1ccccc1C(=O)N1CCC(Cc2ccccc2)CC1	Not Active	Not Active	Not Active	Not Active	Not Active	–	1.86	1.18	–	–	–	–	–	–	–	–
O=C1CC[C@H](N2C(=O)c3ccccc3C2=O)C(=O)N1	Not Active	Not Active	Not Active	Not Active	Not Active	Not Active	–	–	–	–	–	–	–	–	–	–
N=C(Nc1ccccc1)Nc1ccccc1	Not Active	Not Active	Not Active	Not Active	Not Active	Not Active	–	–	–	–	–	–	–	–	–	–
C[C@@H](O)[C@H](CO)NC(=O)[C@@H]1CSSC[C@H](NC(=O)[C@H](N)Cc2ccccc2)C(=O)N[C@@H](Cc2ccccc2)C(=O)N[C@H](Cc2c[nH]c3ccccc23)C(=O)N[C@@H](CCCCN)C(=O)N[C@@H]([C@@H](C)O)C(=O)N1 (H-[dF]CF[dW]KTC-{Threoninol(2S,3R)}; disulfide 2-7)	Not Active	Not Active	Not Active	Not Active	Not Active	Not Active	–	–	–	–	–	–	–	–	–	–
S=C=Nc1cccc2ccccc12 [1-NAPHTHYLISOTHIOCYANATE]	Not Active	–	Not Active	Not Active	Not Active	–	25.2	16	6.27	2.35	–	–	–	–	–	–
C[C@](O)(CS(=O)(=O)c1ccc(F)cc1)C(=O)Nc1ccc(C#N)c(C(F)(F)F)c1 [(R)-BICALUTAMIDE]	Not Active	Not Active	Not Active	Not Active	Not Active	Not Active	–	–	–	–	–	–	–	–	–	–
CCCC(=O)Nc1ccc(OCC(O)CNC(C)C)c(C(C)=O)c1 (stereo not given) [ACEBUTOLOL]	Not Active	Not Active	Not Active	Not Active	–	Not Active	–	–	–	–	–	–	–	–	–	–
CC(=O)Nc1ccc(O)cc1 [ACETAMINOPHEN]	Not Active	Not Active	Not Active	Not Active	Not Active	Not Active	–	–	–	–	–	–	–	–	–	–
COc1cc2c(c3oc(=O)c4c(c13)CCC4=O)[C@@H]1C=CO[C@@H]1O2 [AFLATOXIN]	Not Active	Not Active	Not Active	Not Active	Not Active	Not Active	–	–	–	–	Not Active	Not Active	Not Active	Not Active	Not Active	Not Active
N=C(N)NC(=O)c1nc(Cl)c(N)nc1N [AMILORIDE]	Not Active	Not Active	Not Active	Not Active	Not Active	Not Active	–	–	–	–	–	–	–	–	–	–
Cc1cc(=O)n(-c2ccccc2)n1C [ANTIPYRINE]	Not Active	Not Active	Not Active	Not Active	Not Active	Not Active	–	–	–	–	–	–	–	–	–	–
CN1C(=O)COc2c(C(=O)NC3CN4CCC3CC4)cc(Cl)cc21 (stereo not given) [AZASETRON]	Not Active	Not Active	Not Active	Not Active	Not Active	Not Active	–	–	–	–	–	–	–	–	–	–
C[C@H]1C[C@H]2[C@@H]3CCC4=CC(=O)C=C[C@]4(C)[C@@]3(Cl)[C@@H](O)C[C@]2(C)[C@@]1(O)C(=O)CO [BECLOMETHASONE]	Not Active	Not Active	Not Active	Not Active	Not Active	Not Active	–	–	–	–	–	–	–	–	–	–
CCOC(=O)[C@H](CCc1ccccc1)N[C@H]1CCc2ccccc2N(CC(=O)O)C1=O [BENAZEPRIL]	Not Active	Not Active	Not Active	Not Active	Not Active	Not Active	–	–	–	–	–	–	–	–	–	–
Nc1c(CC(=O)O)cccc1C(=O)c1ccc(Br)cc1 [BROMFENAC]	Not Active	Not Active	Not Active	Not Active	Not Active	Not Active	–	–	–	–	–	–	–	–	–	–

SMILES	IC50 (Cannabinoid receptor 1)	IC50 ([1]; sf9)	IC50 (Melanocortin receptor 5)	IC50 [2]	IC50 [3]	IC50 ([4]; cho-k1)	IC50 ([4]; read-out: IC50) [µM]	Ki ([4]; read-out: Ki) [µM]	IC50 ([1]; read-out: IC50) [µM]	Ki ([1]; read-out: Ki) [µM]	Ki (Cannabinoid receptor 1)	Ki ([1]; sf9)	Ki (Melanocortin receptor 5)	Ki [2]	Ki [3]	Ki ([4]; cho-k1)
CCCCN1CCCCC1C(=O)Nc1c(C)cccc1C.Cl (stereo not given) [BUPIVACAINE HYDROCHLORIDE]	Not Active	Not Active	Not Active	Not Active	Not Active	Not Active	–	–	–	–	–	–	–	–	–	–
O=C1CC2(CCCC2)CC(=O)N1CCCCN1CCN(c2ncccn2)CC1 [BUSPIRONE]	Not Active	Not Active	Not Active	Not Active	Not Active	–	0.75	0.477	–	–	–	–	–	–	–	–
C[C@@]12C(=O)OC(=O)[C@]1(C)[C@H]1CC[C@@H]2O1 [CANTHARIDIN]	Not Active	Not Active	Not Active	Not Active	Not Active	Not Active	–	–	–	–	–	–	–	–	–	–
O=NN(CCCl)C(=O)NCCCl [CARMUSTINE]	Not Active	Not Active	Not Active	Not Active	Not Active	Not Active	–	–	–	–	–	–	–	–	–	–
CC1=C(C(=O)O)N2C(=O)[C@@H](NC(=O)[C@H](N)c3ccccc3)[C@H]2SC1 [CEPHALEXIN ANHYDROUS]	Not Active	Not Active	Not Active	Not Active	Not Active	Not Active	–	–	–	–	–	–	–	–	–	–
O=C(N[C@H](CO)[C@H](O)c1ccc([N+](=O)[O-])cc1)C(Cl)Cl [CHLORAMPHENICOL]	Not Active	Not Active	Not Active	Not Active	Not Active	Not Active	–	–	–	–	–	–	–	–	–	–
ClC(Cl)Cl [CHLOROFORM]	Not Active	Not Active	Not Active	Not Active	Not Active	Not Active	–	–	–	–	–	–	–	–	–	–
C=C1CC[C@H](O)C/C1=C/C=C1\CCC[C@]2(C)[C@@H]([C@H](C)CCCC(C)C)CC[C@@H]12 [CHOLECALCIFEROL]	Not Active	Not Active	Not Active	Not Active	Not Active	Not Active	–	–	–	–	–	–	–	–	–	–
C[N+](C)(C)CCO.[Cl-] [CHOLINE CHLORIDE]	Not Active	Not Active	Not Active	Not Active	Not Active	Not Active	–	–	–	–	–	–	–	–	–	–
CCOC(=O)C(C)(C)Oc1ccc(Cl)cc1 [CLOFIBRATE]	Not Active	Not Active	Not Active	Not Active	Not Active	Not Active	–	–	–	–	–	–	–	–	–	–
CC(=O)OCC(=O)[C@@]1(O)CC[C@H]2[C@@H]3CCC4=CC(=O)CC[C@]4(C)[C@H]3C(=O)C[C@@]21C [CORTISONE ACETATE]	Not Active	Not Active	Not Active	Not Active	Not Active	Not Active	–	–	–	–	–	–	–	–	–	–
O=c1ccc2ccccc2o1 [COUMARIN]	Not Active	Not Active	Not Active	Not Active	Not Active	–	–	–	–	–	–	–	–	–	–	Not Active
C[C@@H]1C[C@@H]([C@H](O)CC2CC(=O)NC(=O)C2)C(=O)[C@@H](C)C1 [CYCLOHEXIMIDE]	Not Active	Not Active	Not Active	Not Active	Not Active	Not Active	–	–	–	–	–	–	–	–	–	–
C/C=C/C[C@@H](C)[C@@H](O)[C@H]1C(=O)N[C@@H](CC)C(=O)N(C)CC(=O)N(C)[C@@H](CC(C)C)C(=O)N[C@@H](C(C)C)C(=O)N(C)[C@@H](CC(C)C)C(=O)N[C@@H](C)C(=O)N[C@H](C)C(=O)N(C)[C@@H](CC(C)C)C(=O)N(C)[C@@H](CC(C)C)C(=O)N(C)[C@@H](C(C)C)C(=O)N1C [CYCLOSPORINE]	Not Active	Not Active	Not Active	Not Active	Not Active	Not Active	–	–	–	–	–	–	–	–	–	–
CN(C)/N=N/c1[nH]cnc1C(N)=O [DACARBAZINE]	Not Active	Not Active	Not Active	Not Active	Not Active	Not Active	–	–	–	–	–	–	–	–	–	–
CN(C)c1ccc(C(=C2C=CC(=[N+](C)C)C=C2)c2ccc(N(C)C)cc2)cc1.[Cl-] [GENTIAN VIOLET]	Not Active	–	Not Active	–	–	Not Active	–	–	0.536	0.201	–	–	–	–	–	–

From ChEMBL document CHEMBL1909046, “DrugMatrix in vitro pharmacology data”
